Measurements from patent publication US10653693B2, “PRMT5 inhibitors and uses thereof” (Epizyme, Inc., priority 2014, dated 2020).

How the values were obtained:
Jeko-1 cells = assay: Gene expression of apoptotic response genes (real time PCR); assay type: cell-based, Human; conditions: day 4
Method: (§1) The fold change was calculated using the Comparative Ct method ([…]). N=1. A previous RNA Seq study in MCL cell lines using a tool compound with the same cellular potency as Formula B identified expression changes in a number of genes involved in the apoptotic response (unpublished results). These genes included the Bcl-2 family members PUMA and BAX, well characterized drivers of the apoptotic response. Other genes implicated in the apoptotic response were also identified and include PHLDA3, TP53I3, p21, APOBEC3H, TRIM22, and FAS.

Granta-519 = assay: as above; assay type: cell-based, Human; conditions: day 4
Method: as §1

[1] = test system: cellular methylation (symmetric di-methyl arginine) in Z-138 cells; assay: In Cell Western (ICW) methylation assay, SYM11 antibody; assay type: cell-based; conditions: Homo sapiens, 96 h, 4 days of treatment, n=1
Method: Percent inhibition was determined and IC50 curves were generated using triplicate wells per concentration of compound. IC50 values were calculated using GraphPad Prism using a 4-parametric fit of the normalized dose response curves with the top fixed to 100%. Z-138 suspension cells were purchased from ATCC (American Type Culture Collection, Manassas, Va.). RPMI/Glutamax medium, penicillin-streptomycin, heat inactivated fetal bovine serum, and D-PBS were purchased from Life Technologies, Grand Island, N.Y., USA. Odyssey blocking buffer, 800CW goat anti-rabbit IgG (H+L) antibody, and Licor Odyssey infrared scanner were purchased from Licor Biosciences, Lincoln, Nebr., USA. Symmetric di-methyl arginine antibody was purchased from EMD Millipore, Billerica, Mass., USA. 16% Paraformaldehyde was purchased from Electron Microscopy Sciences, Hatfield, Pa., USA. Z-138 suspension cells were maintained in growth medium (RPMI 1640 supplemented with 10% v/v heat inactivated fetal bovine serum and 100 units/mL penicillin-streptomycin) and cultured at 37° C. under 5% CO2. […] The average of the ratio values for each control type was calculated and used to determine the percent inhibition for each test well in the plate. […] Percent inhibition was determined and IC50 curves were generated using triplicate wells per concentration of compound. […]

IC50 [1]: 0.64 nM
SMILES: CC(=O)N1CCC(Nc2cc(C(=O)NC[C@H](O)CN3CCc4ccccc4C3)ccn2)CC1 [Formula B]
effects in any of the genes tested (Jeko-1 cells): did not show any significant effects
gene expression for p21, TRIM22, and FAS (Granta-519): only modest increases
increase in the gene PHLDA3 (Granta-519): ≤ 10 fold
